Assay results: the supplement of paper PMC11451515

Legend:
Conditions in all cases: 48 h
SEM cells [1] = test: cell viability relative to DMSO control; higher = less cytotoxic
Summary of the method: (§1)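 Before seeding, each leukemia line was adapted for at least four passages in each medium. NOMO1 or SEM cells (500 cells/well) and P12-Ichikawa cells (1000 cells/well) went into 1536-well plates at 5 μl, then received library compounds in DMSO by pin dosing across 11 threefold concentrations, 47 μM to 0.79 nM. Readout was CellTiter-Glo One luminescence after 48 h at 37°C, and viability is given as a per-plate percentage of DMSO wells, with cell-free wells as background.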

NOMO1 [2] = test: as above
Summary of the method: as §1

P12-Ichikawa [3] = test: as above
Summary of the method: as §1

SEM cells [4] = test: AUC of viability dose-response curve (% viability x log10 dose units); higher = less sensitive
Summary of the method: (§2)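 Over 48 h at 37°C, leukemia cells in 1536-well plates (500 or 1000 cells/well), adapted to each medium, received library compounds in DMSO at 11 threefold doses from 47 μM to 0.79 nM. CellTiter-Glo One luminescence, normalised per plate to DMSO and cell-free wells, was fitted by a four-parameter log-logistic function of log10 dose. The area under the curve was then integrated by trapezoidal rule, after scaling curves above full viability and removing those that failed quality control.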

NOMO1 [5] = test: as above
Summary of the method: as §2

P12-Ichikawa [6] = test: as above
Summary of the method: as §2

[7] = HPLM + 10% dialyzed FBS, 0.000781 µM
[8] = HPLM + 10% dialyzed FBS, 0.00234 µM
[9] = HPLM + 10% dialyzed FBS, 0.00702 µM
[10] = HPLM + 10% dialyzed FBS, 0.0211 µM
[11] = HPLM + 10% dialyzed FBS, 0.0632 µM
[12] = HPLM + 10% dialyzed FBS, 0.19 µM
[13] = HPLM + 10% dialyzed FBS, 0.569 µM
[14] = HPLM + 10% dialyzed FBS, 1.71 µM
[15] = HPLM + 10% dialyzed FBS, 5.12 µM
[16] = HPLM + 10% dialyzed FBS, 15.4 µM
[17] = HPLM + 10% dialyzed FBS, 46.1 µM
[18] = RPMI 5 mM glucose + 10% FBS, 0.000781 µM
[19] = RPMI 5 mM glucose + 10% FBS, 0.00234 µM
[20] = RPMI 5 mM glucose + 10% FBS, 0.00702 µM
[21] = RPMI 5 mM glucose + 10% FBS, 0.0211 µM
[22] = RPMI 5 mM glucose + 10% FBS, 0.0632 µM
[23] = RPMI 5 mM glucose + 10% FBS, 0.19 µM
[24] = RPMI 5 mM glucose + 10% FBS, 0.569 µM
[25] = RPMI 5 mM glucose + 10% FBS, 1.71 µM
[26] = RPMI 5 mM glucose + 10% FBS, 5.12 µM
[27] = RPMI 5 mM glucose + 10% FBS, 15.4 µM
[28] = RPMI 5 mM glucose + 10% FBS, 46.1 µM
[29] = RPMI 5 mM glucose + 10% dialyzed FBS, 0.000781 µM
[30] = RPMI 5 mM glucose + 10% dialyzed FBS, 0.00234 µM
[31] = RPMI 5 mM glucose + 10% dialyzed FBS, 0.00702 µM
[32] = RPMI 5 mM glucose + 10% dialyzed FBS, 0.0211 µM
[33] = RPMI 5 mM glucose + 10% dialyzed FBS, 0.0632 µM
[34] = RPMI 5 mM glucose + 10% dialyzed FBS, 0.19 µM
[35] = RPMI 5 mM glucose + 10% dialyzed FBS, 0.569 µM
[36] = RPMI 5 mM glucose + 10% dialyzed FBS, 1.71 µM
[37] = RPMI 5 mM glucose + 10% dialyzed FBS, 5.12 µM
[38] = RPMI 5 mM glucose + 10% dialyzed FBS, 15.4 µM
[39] = RPMI 5 mM glucose + 10% dialyzed FBS, 46.1 µM
[40] = RPMI 5 mM glucose + 10% dialyzed FBS

CCNC(=O)CCC/C=C\C[C@@H]1[C@@H](/C=C/C(O)CCc2ccccc2)[C@@H](O)C[C@@H]1O (stereo partly drawn)
cell viability (SEM cells [1]; [7]): 96.2% | cell viability (SEM cells [1]; [8]): 116% | cell viability (SEM cells [1]; [9]): 100% | cell viability (SEM cells [1]; [10]): 98.8% | cell viability (SEM cells [1]; [11]): 115% | cell viability (SEM cells [1]; [12]): 104% | cell viability (SEM cells [1]; [13]): 104% | cell viability (SEM cells [1]; [14]): 108% | cell viability (SEM cells [1]; [15]): 108% | cell viability (SEM cells [1]; [16]): 91.2% | cell viability (SEM cells [1]; [17]): 87.4% | cell viability (SEM cells [1]; [18]): 95.4% | cell viability (SEM cells [1]; [19]): 112% | cell viability (SEM cells [1]; [20]): 110% | cell viability (SEM cells [1]; [21]): 98.7% | cell viability (SEM cells [1]; [22]): 118% | cell viability (SEM cells [1]; [23]): 111% | cell viability (SEM cells [1]; [24]): 117% | cell viability (SEM cells [1]; [25]): 118% | cell viability (SEM cells [1]; [26]): 111% | cell viability (SEM cells [1]; [27]): 98.2% | cell viability (SEM cells [1]; [28]): 100% | cell viability (SEM cells [1]; [29]): 89.6% | cell viability (SEM cells [1]; [30]): 117% | cell viability (SEM cells [1]; [31]): 128% | cell viability (SEM cells [1]; [32]): 107% | cell viability (SEM cells [1]; [33]): 120% | cell viability (SEM cells [1]; [34]): 109% | cell viability (SEM cells [1]; [35]): 102% | cell viability (SEM cells [1]; [36]): 106% | cell viability (SEM cells [1]; [37]): 114% | cell viability (SEM cells [1]; [38]): 107% | cell viability (SEM cells [1]; [39]): 81.3% | cell viability (NOMO1 [2]; [7]): 104% | cell viability (NOMO1 [2]; [8]): 108% | cell viability (NOMO1 [2]; [9]): 106% | cell viability (NOMO1 [2]; [10]): 131% | cell viability (NOMO1 [2]; [11]): 112% | cell viability (NOMO1 [2]; [12]): 130% | cell viability (NOMO1 [2]; [13]): 103% | cell viability (NOMO1 [2]; [14]): 116% | cell viability (NOMO1 [2]; [15]): 105% | cell viability (NOMO1 [2]; [16]): 110% | cell viability (NOMO1 [2]; [17]): 39.5% | cell viability (NOMO1 [2]; [18]): 116% | cell viability (NOMO1 [2]; [19]): 118% | cell viability (NOMO1 [2]; [20]): 124% | cell viability (NOMO1 [2]; [21]): 106% | cell viability (NOMO1 [2]; [22]): 108% | cell viability (NOMO1 [2]; [23]): 105% | cell viability (NOMO1 [2]; [24]): 113% | cell viability (NOMO1 [2]; [25]): 120% | cell viability (NOMO1 [2]; [26]): 118% | cell viability (NOMO1 [2]; [27]): 102% | cell viability (NOMO1 [2]; [28]): 38% | cell viability (NOMO1 [2]; [29]): 113% | cell viability (NOMO1 [2]; [30]): 121% | cell viability (NOMO1 [2]; [31]): 106% | cell viability (NOMO1 [2]; [32]): 116% | cell viability (NOMO1 [2]; [33]): 114% | cell viability (NOMO1 [2]; [34]): 105% | cell viability (NOMO1 [2]; [35]): 120% | cell viability (NOMO1 [2]; [36]): 105% | cell viability (NOMO1 [2]; [37]): 118% | cell viability (NOMO1 [2]; [38]): 111% | cell viability (NOMO1 [2]; [39]): 32.3% | cell viability (P12-Ichikawa [3]; [7]): 117% | cell viability (P12-Ichikawa [3]; [8]): 121% | cell viability (P12-Ichikawa [3]; [9]): 111% | cell viability (P12-Ichikawa [3]; [10]): 111% | cell viability (P12-Ichikawa [3]; [11]): 116% | cell viability (P12-Ichikawa [3]; [12]): 114% | cell viability (P12-Ichikawa [3]; [13]): 111% | cell viability (P12-Ichikawa [3]; [14]): 114% | cell viability (P12-Ichikawa [3]; [15]): 105% | cell viability (P12-Ichikawa [3]; [16]): 106% | cell viability (P12-Ichikawa [3]; [17]): 99.7% | cell viability (P12-Ichikawa [3]; [18]): 109% | cell viability (P12-Ichikawa [3]; [19]): 125% | cell viability (P12-Ichikawa [3]; [20]): 109% | cell viability (P12-Ichikawa [3]; [21]): 130% | cell viability (P12-Ichikawa [3]; [22]): 122% | cell viability (P12-Ichikawa [3]; [23]): 109% | cell viability (P12-Ichikawa [3]; [24]): 111% | cell viability (P12-Ichikawa [3]; [25]): 112% | cell viability (P12-Ichikawa [3]; [26]): 109% | cell viability (P12-Ichikawa [3]; [27]): 103% | cell viability (P12-Ichikawa [3]; [28]): 95% | cell viability (P12-Ichikawa [3]; [29]): 121% | cell viability (P12-Ichikawa [3]; [30]): 120% | cell viability (P12-Ichikawa [3]; [31]): 127% | cell viability (P12-Ichikawa [3]; [32]): 111% | cell viability (P12-Ichikawa [3]; [33]): 110% | cell viability (P12-Ichikawa [3]; [34]): 105% | cell viability (P12-Ichikawa [3]; [35]): 116% | cell viability (P12-Ichikawa [3]; [36]): 106% | cell viability (P12-Ichikawa [3]; [37]): 111% | cell viability (P12-Ichikawa [3]; [38]): 97.3% | cell viability (P12-Ichikawa [3]; [39]): 86.6% | AUC of viability dose-response curve (SEM cells [4]; HPLM + 10% dialyzed FBS): 466 | AUC of viability dose-response curve (SEM cells [4]; RPMI 5 mM glucose + 10% FBS): 473 | AUC of viability dose-response curve (SEM cells [4]; [40]): 461 | AUC of viability dose-response curve (NOMO1 [5]; HPLM + 10% dialyzed FBS): 460 | AUC of viability dose-response curve (NOMO1 [5]; RPMI 5 mM glucose + 10% FBS): 456 | AUC of viability dose-response curve (NOMO1 [5]; [40]): 459 | AUC of viability dose-response curve (P12-Ichikawa [6]; HPLM + 10% dialyzed FBS): 448 | AUC of viability dose-response curve (P12-Ichikawa [6]; RPMI 5 mM glucose + 10% FBS): 453 | AUC of viability dose-response curve (P12-Ichikawa [6]; [40]): 431
